Measurements taken from BindingDB's records for doi:10.1016/j.bmc.2019.01.035 (Florida A&M University, 2019).

Target: Sigma non-opioid intracellular receptor 1 (Homo sapiens, UniProt Q99720)
Experiment: Displacement [3H]-Pentazocine from sigma 1 receptor (unknown origin) expressed in HEK cell membranes

Sigma non-opioid intracellular receptor 1, sequence (Q99720 whole entry): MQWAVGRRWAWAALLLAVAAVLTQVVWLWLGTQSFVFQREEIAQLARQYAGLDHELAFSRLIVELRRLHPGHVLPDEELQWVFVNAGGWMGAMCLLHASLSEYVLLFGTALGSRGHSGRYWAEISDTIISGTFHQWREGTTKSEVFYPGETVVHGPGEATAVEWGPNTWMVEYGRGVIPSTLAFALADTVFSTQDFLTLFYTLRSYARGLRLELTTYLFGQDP

O=C(CCCN1CCCN(c2ccccn2)CC1)c1ccc(F)cc1
Ki: 63 nM
